The source of these data is US11903385B1, “1-(butyl(2-hydroxy-3-(naphthalen-1-yloxy)propyl)amino)-3-(naphthalen-2-yloxy)propan-2-ol as an eco-friendly insecticidal agent against Spodoptera littoralis (boisd.)” (KING FAISAL UNIVERSITY, priority 2023, dated 2024).

In data set [1] the test system is S. littoralis larvae. Description: Insecticidal leaf dip bioassay screening. The conditions noted are these: 72 h; for Toxicity ratio: fenoxycarb's LC50 / the compound's LC50; for LC50: Spodoptera littoralis, foliar.
Protocol: Until usage, the stocks were kept in a refrigerator. The target substance test results were noted & the concentrations needed to destroy 50% (LC50) of S. littoralis larvae were calculated. The target compound was employed in five different concentrations, and 0.1% Tween 80 was employed as a surfactant. Castor bean leaf discs (nine centimeters in diameter) were dipped in the concentration under test for ten seconds, then fed to 2th & 4th larvae, which were roughly the same size and housed in glass jars (five lb). Each action was carried out 3 times with ten larvae each. The mortality equalized via Abbott's formula. Calculations of mortality setback line were measurably rummage via probity analysis. […] The mortality results of larval insect were estimated through employing probit analysis through a statistics (LDP-line) equation which estimate the LC50 values with 95% fiducially limits of lower, upper confidence limit and slope.
Data set [2] has as its system aquatic insects. The conditions noted are these: cited from earlier work.
The mark [3] stands for this setting: read-out: LC50 (mg/L) at 95%, 2nd instar larvae, after 72 h of treatment.
The mark [4] stands for this setting: read-out: LC50 (mg/L) at 95%, 4th instar larvae, after 72 h of treatment.

Values after ≈ are worked out from the molar mass of the structure shown. Like-named read-outs stand apart in the source and are kept apart here.

For the molecule `CCOC(=O)NCCOc1ccc(Oc2ccccc2)cc1` [Fenoxycarb], the Toxicity ratio in data set [1] (2nd instar larvae) and in data set [1] (4th instar larvae) was 1 throughout. Further, the values for the LC50 in data set [1] (setting [3]) and in data set [1] (setting [4]) were 2.73 mg/L (≈ 9.06 µM) and 9.18 mg/L (≈ 30.5 µM), respectively.
Turning to `CCCCN(CC(O)COc1ccc2ccccc2c1)CC(O)COc1cccc2ccccc12` (stereo not drawn) [III, 1-(butyl(2-hydroxy-3-(naphthalen-1-yloxy)propyl)amino)-3-(naphthalen-2-yloxy)propan-2-ol], the Toxicity ratio in data set [1] (2nd instar larvae) worked out at 0.253; in data set [1] (4th instar larvae), 0.551. Further, the figures for the LC50 in data set [1] (setting [3]) and in data set [1] (setting [4]) were approximately 10.8 mg/L (≈ 22.7 µM) and approximately 16.6 mg/L (≈ 35.2 µM), respectively.
Consider `CCc1ccc(C(=O)NN(C(=O)c2cc(C)cc(C)c2)C(C)(C)C)cc1` [tebufenozide], for which the LC50 in data set [2] was 100 to 1000 µg/mL.
